Entries after “also recorded” stand apart in the source; their conditions may differ. Like-named read-outs stand apart in the source and are kept apart here. Ends that are not written are not given here.
Tests used:
MDA-MB-231 xenograft = assay: MDA-MB-231 orthotopic breast tumor xenograft; type: in vivo, SCID mice
Procedure: For primary tumor inhibition studies, 1−2×10^6 tumor cells were injected into 4-6 wk old female SCID mice. After the tumors reached a size of 100 mm^3 the animals were randomized into groups of 10 animals each. The animals were treated with vehicle, SP2012, SP2000, or SP2024. The peptides were administered subcutaneously daily. Dosing was continued for 3 or 4 weeks and tumor sizes were measured every 3 days using calipers. The tumor volume was estimated using the formula V=a^2b/2 where a and b are the smaller and larger diameters.
For the tumor xenograft assay, animals were housed and treated according to the approved animal protocol of the Institutional Care and Use Committee at Johns Hopkins Medical Institution (JHMI). Orthotopic breast tumors were initiated in SCID mice using MDA-MB-231 cells. 2×10^6 cells per 100 μL aliquot of single cell suspension were injected in the breast mannary fat pad. Tumors reached volumes of 75 mm^3 to 100 mm^3 in approximately 14-21 days. Mice were randomized and arranged in groups (8 mice per group) with similar tumor volumes (no statistical difference among averages) and treatment was commenced. Peptides were administered once per day intraperitoneally (i.p.) at doses of 10 mg/kg (subcutaneous delivery was also tested with certain peptides). Paclitaxel was administered at 5 mg/kg once a week, and to maintain the daily treatment regime PBS was administered on the non-treatment days. Tumors were measured every fourth day using calipers and the tumor volume was calculated using the formula V=ab^2/2, where a is the larger diameter and b is the smaller diameter.

HUVEC [1] = assay: HUVEC migration assay (RT-CIM); type: cell-based, human
Method in brief: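 Real-time impedance (RT-CIM) transwell migration through fibronectin-coated (20 μg/mL) 8 μm membranes; 45,000 cells/well in serum-free medium ± peptides, fully supplemented EBM-2 as chemoattractant below. Cell index recorded over 20 h at 37 °C; ≥2 independent replicates, each in duplicate.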

HUVEC [2] = assay: HUVEC tube formation assay on Matrigel; type: cell-based, human
Method in brief: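 HUVEC (15,000/well) plated on polymerized Matrigel in complete media with or without peptide for 19 h at 37 °C. Tube networks imaged by microscopy, one random field per well, in triplicate wells across at least two independent experiments.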

[3] = test system: MDA-MB-231 breast cancer cells; assay: MDA-MB-231 adhesion assay; type: cell-based
Procedure: (§1) Similar to the migration assays, the inhibition activity of the peptide in cellular adhesion was assessed using the RT-CIM technology. In this case, 25,000 cells/well were plated in 16 wells E-plates (Roche, Basel Switzerland) in the presence or absence of the peptide. The adhesion was monitored over time (3 hours) by measuring changes in the electrical impedance, which is a direct measure of the cells adhering on the electrodes. […] Assays were performed in at least two independent replicates and each replicate was performed using two experimental duplicates.

[4] = test system: lymphatic endothelial cells (LEC); assay: LEC migration assay; type: cell-based
Procedure: The inhibitory potential of the peptides was measured using a real time migration assay system based on electrical impedance (RT-CIM, ACEA Biosciences, CA). CIM 16 well plates (Roche, 05665817001) are composed of a top and bottom chamber separated by a microporous (8 μm) polycarbonate membrane. The membrane was coated with fibronectin (20 μg/mL), and 45,000 cells/well in serum free media with or without peptides were added to the top compartment. Media with chemoattractant (i.e., fully supplemented EBM-2) was added to the bottom compartment of the chamber and the plate was incubated at 37° C. for 20 hours. The sensors integrated on the bottom side of the membrane monitor and continuously record changes in impedance as the cells move through the membrane. The RT-CIM technology allows for easy quantification of cell migration by monitoring the cell index derived from the measured impedances. Assays were performed in at least two independent replicates and each replicate was performed using two experimental duplicates.

HUVEC [5] = type: cell-based, human
Method in brief: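 HUVEC plated at 2000 cells/well overnight, then exposed to peptides in fully supplemented medium for three days. WST-1 added in serum-free EBM-2 for four hours and absorbance read at 450 nm. Percent live cells taken relative to untreated cells in complete medium with 0.2% DMSO.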

[6] = test system: lymphatic endothelial cells (LEC); assay: LEC adhesion assay; type: cell-based
Procedure: as §1

HUVEC [7] = type: cell-based, human; remark: listed apart in the source
Method in brief: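 Adhesion of 25,000 cells per well, with or without peptide, followed by real-time electrical impedance on electrode plates over 3 hours. At least two independent replicates, each run in duplicate.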

For LRRFSTMPFMFININNVINF-NH2 [SP2024], the “suppression of tumor growth” value (MDA-MB-231 xenograft; MDA-MB-231 xenograft in mice, 10 mg/kg daily) was “inhibited tumor growth significantly over the control”, the MDA-MB-231 xenograft inhibition (MDA-MB-231 xenograft; mice) was “Active” and the “Migration Inhibition (5 uM)” value (HUVEC [1]; 5 uM peptide) was 37.73%. For the same substance, the “Activity in Migration” value (HUVEC [1]; Yes/No summary, active = inhibitory potential greater than 30%) was “Yes”, the “Tube formation Inhibition (100 uM)” value (HUVEC [2]; 100 uM peptide) was “Complete” and the “Activity in Tube formation” value (HUVEC [2]; Yes/No summary) was “Yes”. The “inhibition of adhesion of MDA-MB-231 cells” value [3] was “strong; also recorded: inhibition of cell adhesion”, the “inhibition of migration of LEC” value [4] was “strong” and the IC50 (HUVEC [5]) was 1.29 µM. For the same substance, the “Activity in Proliferation” value (HUVEC [5]; HUVEC, Yes/No summary) was “Yes”, the IC50 (HUVEC [5]; HUVEC, tables 5, 8-10 and text, read-out: IC50 ± 95% CI (μM), proliferation) was 7.45 ± 5.7 µM and the “inhibition of adhesion of LEC” value [6] was “strong”. For the same substance, the IC50 (HUVEC [7]; 3 h) was 2350 ± 1300 nM, the “Adhesion Inhibition (100 uM)” value (HUVEC [7]; HUVEC, 100 uM peptide) was 94.45% and the “Activity in Adhesion” value (HUVEC [7]; HUVEC, Yes/No summary, active = inhibitory potential greater than 30%) was “Yes”.
